From EP0440298A1, “Topical preparations for treating human nails” (BROCADES PHARMA B.V., priority 1990, dated 1991)

Assays:
[1] = Weight increase of nail clippings during immersion in a lotion (Example 1); parameters: species or system Human
Description: Solutions (lotions) were prepared, containing (v/v) 40% of distilled water, 40% of methyl ethyl ketone and 20% of isopropyl alcohol.
To these lotions were added salicylic acid, NAC, 1,4-dithiothreitol or mercaptoethylamine, in w/v concentrations as further specified in Table 1.
To distilled water were added glutathione, mercaptoethanol or urea, in w/v concentrations as further specified in Table 1.
(§1) Human nail clippings were immersed in the test and control lotions at ambient temperature and their weight increase expressed as % of their original weight.

[2] = Comparison of sulfhydryl compounds: weight increase of nail clippings during immersion in a lotion (Example 10); parameters: species or system human; conditions: 0.1 M in lotion of 50% v/v ethanol in distilled water
Description: as §1
The effects of 0.1 M of each of NAC (pH 2.3), 1,4-dithiothreitol (DTT, not claimed, pH 4.5) and ammonium thioglycolate (ATG, not claimed, pH 9.0), in a lotion consisting of 50% v/v ethanol in distilled water were compared, as in Example 1. The immersion period of the human nail clippings in the control and test lotions was 72 hours.

[3] = type: in vitro ADME, human
Description: (§2) On human nail discs of 6 mm diameter were mounted 1.5 cm pieces of tubing of 4 mm outer and 3 mm inner diameter, in each of which was poured 30 µl of one of the above lotions (n = 2 x 3). The free (ventral) surfaces of the nail discs were kept moist on a pad soaked in saline.
(§3) After 48 hours of incubation at 30°C and the discs were sectioned (50 µm) parallel to their dorsal surface, using a freeze-microtome. Radioactivity was measured in the separate sections, after which the amount of penetrated oxiconazole was calculated.
To lotions consisting of 50% v/v of ethanol in distilled water were added 0.1 M of NAC (pH 2.3), of 1,4-dithiothreitol (DTT, not claimed, pH 4.5) or of ammonium thioglycolate (ATG, not claimed, pH 9.0), as in Example 10. To all three solutions was also added 1% w/v of oxiconazole, containing a known amount (1 µCi per 30 µl) of radioactive ¹⁴C oxiconazole. These lotions were tested in an experimental set-up as in Examples 6 and 9.

[4] = Effect of pretreatment with NAC-containing film-forming lotion on the penetration of oxiconazole in nail discs (Example 7); type: in vitro ADME, Human
Description: A 20% w/v NAC-containing film-forming lotion and a control film-forming lotion were prepared as in Example 4.
(§4) Human nail discs of 6 mm diameter, resting with their ventral side on pads soaked with saline, were dorsally painted with these film-forming lotions (n = 2 x 3) twice daily during 5 days. Then the six nail discs were rinsed and mounted on pieces of tubing as in Example 6. Subsequently 20 mg of ¹⁴C oxiconazole was added to 30 ml of Oceral® lotion (i.e. 1% oxiconazole in an alcoholic base). Of this, 30 µl was poured into the tubings on top of the dorsal surfaces of the discs as in Example 6. The free (ventral) surfaces of the nail discs were again kept moist on a pad soaked in saline.
(§5) After 48 hours of incubation at 30°C and 60% relative humidity the discs were sectioned (50 µm) parallel to their dorsal surface, using a freeze-microtome. Radioactivity was measured in the separate sections, after which the amount of penetrated oxiconazole was calculated.

[5] = Weight increase of nail clippings on dorsal application of a film-forming lotion (Example 4); parameters: species or system Human; conditions: film-forming lotion with 20 parts of NAC painted on dorsal surface twice a day; after 3 days (no further change up to 6 days)
Description: (§6) A film-forming lotion was prepared, consisting by weight of 17.5 parts of distilled water, 17.5 parts of ethanol, 20 parts of acetone, 25 parts of polyvinylpyrrolidone VA-S630 and 20 parts of NAC. The control film-forming lotion lacked the NAC.
(§7) Human nail clippings (n = 2 x 3) were laid on pads soaked in saline, and the two types of film-forming lotion were painted on their dorsal surface twice a day. The weights of the clippings were determined after 3, 4, 5 and 6 days.

[6] = Effect of NAC-containing lotion on the penetration of 14C oxiconazole in nail discs (Example 6); type: in vitro ADME, human; conditions: 20% w/v NAC lotion with 1% w/v oxiconazole; 48 hours at 30°C
Description: A 20% w/v NAC-containing lotion and a control lotion were prepared as in Example 1.
To both these preparations was added 1% w/v of oxiconazole, containing a known amount (1 µCi per 30 µl) of radioactive ¹⁴C oxiconazole.
as §2, §3

[7] = Penetration of eosine in nail clippings after immersion in a lotion (pretreatment, Example 3); type: in vitro ADME, Human; conditions: pretreatment in NAC lotion lacking eosine, then 24 hours in lotion with 1% eosine lacking NAC
Description: (§8) To a similar solution (lotion) as in Example 1, consisting of (v/v) 40% distilled water, 40% of methyl ethyl ketone and 20% of isopropyl alcohol, were added (w/v) 17% of NAC and 1% of eosine.
(§9) Human nail clippings were immersed in this liquid and in the same liquid without NAC (n = 2 x 3) during 48 hours at room temperature, after which the colour penetration was estimated on microscopic freeze sections.
The same experimental set-up as in Example 2 was used, except that the nail clippings were first immersed in lotions lacking eosine, and subsequently during 24 hours in lotions containing 1% eosine but lacking NAC. n was again 2 x 3.

[8] = Penetration of the hydrophilic dye eosine in nail clippings during immersion in a lotion (Example 2); type: in vitro ADME, Human; conditions: lotion with 17% NAC and 1% of eosine; immersion 48 hours at room temperature; microscopic freeze sections
Description: as §8, §9

[9] = Effect of pretreatment with cream on the penetration of oxiconazole in nail discs (Example 8); type: in vitro ADME, Human; conditions: pretreatment with cream twice daily during 5 days, then Oceral lotion (1% oxiconazole) 48 hours at 30°C, 60% relative humidity
Description: A NAC-containing cream and a control cream were prepared as in Example 5.
as §4, with “creams” for “film-forming lotions”
as §5

[10] = Penetration of eosine in nail clippings after dorsal application of a film-forming lotion (Example 4); type: in vitro ADME, Human; conditions: after 6 days of film-forming lotion treatment, then 24 hours in 1% eosine solution without NAC
Description: as §6, §7
After the above 6 days of treatment, the (2 x 3) clippings were rinsed and placed for 24 hours in a solution of 1% eosine, as described in Example 2 (without NAC), and then further processed for the microscopic estimation of dye penetration as in Example 2. The average penetration of the dye through the NAC-penetrated nails was 48% of the nail thickness, compared to 6% in the controls.

## O[C@H](CS)[C@H](O)CS (relative stereo) [1,4-Dithiothreitol, 1,4-dithiothreitol]
[1]; 20 % w/v in lotion, 1 hour
  Average % weight increase during immersion (hours): 21%
[1]; 20 % w/v in lotion, 3 hours
  Average % weight increase during immersion (hours): 32%
[1]; 20 % w/v in lotion, 6 hours
  Average % weight increase during immersion (hours): 38%
[1]; 20 % w/v in lotion, 24 hours
  Average % weight increase during immersion (hours): 51%
[1]; 20 % w/v in lotion, 48 hours
  Average % weight increase during immersion (hours): 50%
[1]; 20 % w/v in lotion, 72 hours
  Average % weight increase during immersion (hours): 58%
[2]
  Average % weight increase after immersion during 72 hours: 49%
[3]
  Average amount of oxiconazole (μg), Total: 10.02 µg

## CC(=O)N[C@@H](CS)C(=O)O [NAC, N-acetyl-cysteine]
[4]; pretreatment with film-forming lotion 5 days, then 14C oxiconazole in Oceral lotion 48 hours
  average radioactivity in the three pads under the discs: 7.53%
[4]; pretreatment with film-forming lotion twice daily during 5 days, then Oceral lotion (1% oxiconazole) 48 hours at 30°C, 60% relative humidity
  average total uptake of oxiconazole (expressed as a % of the total amount of oxiconazole applied): 3.25%
[5]
  weight increase of clippings: 34%
[6]
  average total uptake of oxiconazole (expressed as a % of the total amount of oxiconazole applied): 4.94%
[1]; 5 % w/v in lotion, 1 hour
  Average % weight increase during immersion (hours): 23%
[1]; 5 % w/v in lotion, 3 hours
  Average % weight increase during immersion (hours): 32%
[1]; 5 % w/v in lotion, 6 hours
  Average % weight increase during immersion (hours): 38%
[1]; 5 % w/v in lotion, 24 hours
  Average % weight increase during immersion (hours): 47%
[1]; 5 % w/v in lotion, 48 hours
  Average % weight increase during immersion (hours): 60%
[1]; 5 % w/v in lotion, 72 hours
  Average % weight increase during immersion (hours): 70%
[1]; 10 % w/v in lotion, 1 hour
  Average % weight increase during immersion (hours): 24%
[1]; 10 % w/v in lotion, 3 hours
  Average % weight increase during immersion (hours): 33%
[1]; 10 % w/v in lotion, 6 hours
  Average % weight increase during immersion (hours): 38%
[1]; 10 % w/v in lotion, 24 hours
  Average % weight increase during immersion (hours): 59%
[1]; 10 % w/v in lotion, 48 hours
  Average % weight increase during immersion (hours): 67%
[1]; 10 % w/v in lotion, 72 hours
  Average % weight increase during immersion (hours): 79%
[1]; 20 % w/v in lotion, 1 hour
  Average % weight increase during immersion (hours): 23%
[1]; 20 % w/v in lotion, 3 hours
  Average % weight increase during immersion (hours): 30%
[1]; 20 % w/v in lotion, 6 hours
  Average % weight increase during immersion (hours): 37%
[1]; 20 % w/v in lotion, 24 hours
  Average % weight increase during immersion (hours): 60%
[1]; 20 % w/v in lotion, 48 hours
  Average % weight increase during immersion (hours): 91%
[1]; 20 % w/v in lotion, 72 hours
  Average % weight increase during immersion (hours): 110%
[1]; 40 % w/v in lotion, 1 hour
  Average % weight increase during immersion (hours): 24%
[1]; 40 % w/v in lotion, 3 hours
  Average % weight increase during immersion (hours): 33%
[1]; 40 % w/v in lotion, 6 hours
  Average % weight increase during immersion (hours): 38%
[1]; 40 % w/v in lotion, 24 hours
  Average % weight increase during immersion (hours): 71%
[1]; 40 % w/v in lotion, 48 hours
  Average % weight increase during immersion (hours): 110%
[1]; 40 % w/v in lotion, 72 hours
  Average % weight increase during immersion (hours): 154%
[2]
  Average % weight increase after immersion during 72 hours: 72%
[7]
  average penetration of the dye: 19%
[8]
  average penetration of the dye, % of the total nail thickness: 27.5%
[9]
  average total uptake of oxiconazole (expressed as a % of the total amount of oxiconazole applied): 4.0%
[3]
  Average amount of oxiconazole (μg), Total: 15.17 µg
[10]
  average penetration of the dye, % of the nail thickness: 48%

## NC(N)=O [Urea, urea]
[1]; 50 % w/v in distilled water, 1 hour
  Average % weight increase during immersion (hours): 22%
[1]; 50 % w/v in distilled water, 3 hours
  Average % weight increase during immersion (hours): 24%
[1]; 50 % w/v in distilled water, 6 hours
  Average % weight increase during immersion (hours): 32%
[1]; 50 % w/v in distilled water, 24 hours
  Average % weight increase during immersion (hours): 35%
[1]; 50 % w/v in distilled water, 48 hours
  Average % weight increase during immersion (hours): 36%
[1]; 50 % w/v in distilled water, 72 hours
  Average % weight increase during immersion (hours): 37%

## N[C@@H](CCC(=O)N[C@@H](CS)C(=O)NCC(=O)O)C(=O)O [Glutathione, glutathione]
[1]; 10 % w/v in distilled water, 1 hour
  Average % weight increase during immersion (hours): 30%
[1]; 10 % w/v in distilled water, 3 hours
  Average % weight increase during immersion (hours): 32%
[1]; 10 % w/v in distilled water, 6 hours
  Average % weight increase during immersion (hours): 33%
[1]; 10 % w/v in distilled water, 24 hours
  Average % weight increase during immersion (hours): 44%
[1]; 10 % w/v in distilled water, 48 hours
  Average % weight increase during immersion (hours): 58%
[1]; 10 % w/v in distilled water, 72 hours
  Average % weight increase during immersion (hours): 61%

## O=C(O)CS [Ammonium thioglycolate, ammonium thioglycolate]
[2]
  Average % weight increase after immersion during 72 hours: 52%
[3]
  Average amount of oxiconazole (μg), Total: 2.34 µg

## O=C(O)c1ccccc1O [Salicylic acid]
[1]; 14 % w/v in lotion (water/methyl ethyl ketone/isopropyl alcohol), 1 hour, ambient temperature
  Average % weight increase during immersion (hours): 17%
[1]; 14 % w/v in lotion, 3 hours
  Average % weight increase during immersion (hours): 24%
[1]; 14 % w/v in lotion, 6 hours
  Average % weight increase during immersion (hours): 26%
[1]; 14 % w/v in lotion, 24 hours
  Average % weight increase during immersion (hours): 29%
[1]; 14 % w/v in lotion, 48 hours
  Average % weight increase during immersion (hours): 30%
[1]; 14 % w/v in lotion, 72 hours
  Average % weight increase during immersion (hours): 30%

## NCCS [Mercaptoethyl-amine, mercaptoethylamine]
[1]; 20 % w/v in lotion, 1 hour
  Average % weight increase during immersion (hours): 10%
[1]; 20 % w/v in lotion, 3 hours
  Average % weight increase during immersion (hours): 16%
[1]; 20 % w/v in lotion, 6 hours
  Average % weight increase during immersion (hours): 21%
[1]; 20 % w/v in lotion, 24 hours
  Average % weight increase during immersion (hours): 38%
[1]; 20 % w/v in lotion, 48 hours
  Average % weight increase during immersion (hours): 55%
[1]; 20 % w/v in lotion, 72 hours
  Average % weight increase during immersion (hours): 64%
